We go through one molecule from article PMC6018554, “2-[2-(4-(trifluoromethyl)phenylamino)thiazol-4-yl]acetic acid (Activator-3) is a potent activator of AMPK” (Scientific Reports, 2018).

The EC50 is the concentration giving half of the maximal effect. A low value points to a more potent agent. One may read the fraction unbound as the share of the substance not bound to proteins or other matrix. The low end stands for extensive binding, the high end for weak binding. As a reminder, the half-life is the time needed for the level to fall by half in the phase considered. The Cmax is the highest concentration seen after dosing. The AUC is the area under the concentration-time curve, a measure of exposure. The term inhibition denotes the share of the control response that was lost under treatment. Read a high inhibition as strong suppression.

One data set has as its target T1, LKB1 (Homo sapiens, UniProt Q15831).
T1 construct: purchased Kinexus, Canada (screening service)
In words: Cell-free kinase assay (Kinexus). It is filed as biochemical. As for the experimental part:
(§1) To determine whether Activator-3 affects the activity of any other protein kinases, we screened it in cell-free assays against a panel of 100 protein kinases (Kinexus, Canada). […] Three kinases, DDR1 (−79%), SRC (−71%) and ALK5 (−61%) were inhibited by Activator-3 by more than 50% at 10 µM.
Table S2: Activity change observed in the LKB1 Kinase tested against Activator-3 at 200μM
Protein Kinase (CPM) (CPM) % Change
Table S3: Evaluating the goodness of the representative structure obtained from MD
simulations using PROCHECK server.
Ramchandran Map No. of resides Percentage
Most favored regions 889 85.8%
Additional allowed regions 128 12.4%
Generously allowed regions 13 1.3%
Disallowed regions 6 0.6%
Non-glycine and non-proline residues 1036 100.0%
Table S4: Heterotrimeric human AMPK crystal structures available in PDB.
PDBID Isoform Organism Inhibitor and/or activator Modifications References
Staurosporine, 108-SEP Lagendorf et al. 20161
5EZV α2β1γ1 Homo sapiens C2Z, C1V, Staurosporine 172-TPO […]

The subject of another data set is AMPK. Description: Cell based ELISA (pAMPK/pACC) in primary rat hepatocytes. The method, then:
Primary rat hepatocytes were isolated by collagenase (type4, Invitrogen: Cat# 17104-019) digestion as described previously. Digested cells were suspended in DMEM supplemented with 10% FBS. Cells were seeded into 96-well plate (20,000 cells per well) pre-coated with collagen (2 mg/ml). As the cells were metabolically active, medium was changed after cells have attached and allowed to incubate overnight before performing cell based assay.
Approximately 40,000 cells per well were seeded into a 96 well plate (Biofil, cat# TCP011096) and incubated overnight at 37 °C and 5% CO2. After the seeded cells reached 80% confluence, cells were treated with Activator-3 with different working concentrations and 500 μM AICAR (Caymen chemicals, cat# 10010241-10) and incubated for 30 min to 2 h (depending upon the primary antibody used) at 37 °C and 5% CO2. Medium was aspirated and fixed with 4% of formaldehyde solution (diluted in 1X PBS) incubated for 1 h at 4 °C on shaker. Cells were washed with tween 20 (diluted in 1X PBS) on shaker for 5 minutes at room temperature (3 times). […] To quantify the bound primary antibody, cells were probed with a HRP conjugated secondary anti-rabbit antibody (1:2000 dilution, Bio-Rad; Cat# 170-6515) diluted in 1X PBST and incubated 2 h at RT on rocker. […] This reaction is stopped by adding 2 N H2SO4 and plate was immediately read at 450 nm using UV–Vis Spectrophotometer.
On the technique in general: ELISA stands for enzyme-linked immunosorbent assay.

A further data set relates to PFK1. Description: PFK activity assay kit. It is filed as biochemical. To be noted: Activator-3 at 10 µM (≤10 µM).
Data set [1] is described as follows: Human plasma protein binding. It is filed as in vitro ADME. To be noted: data not shown.
A short description of data set [2]: Pharmacokinetic study in male rats. The format is in vivo, rat. The method, then: Male SD rats were orally administered 30 mg/Kg of Activator-3. Blood and brain samples were collected at specified time points and were analyzed for Activator-3 using a LC-MS/MS method[64]–[66]. […] The human plasma protein binding was ~80% (data not shown). […] Systemic exposure of Activator-3 was very high in plasma compared to brain.
Male SD rats were orally administered with 30 mg/Kg of Activator-3. Blood and brain samples were collected at specified time points and were analyzed for Activator-3 using optimized LC-MS/MS method[64]–[66].

A further data set has as its target T2, ROR2 (Homo sapiens, UniProt Q01974).
T2 construct: purchased Kinexus, Canada (screening service)
Description: Cell-free kinase panel (Kinexus). It is filed as biochemical. The conditions noted are these: 10 µM. The method, then: as §1

Another data set deals with T3, PRK1 (Homo sapiens, UniProt Q16512).
T3 construct: purchased Kinexus, Canada (screening service)
Description: Cell-free kinase panel (Kinexus). It is filed as biochemical. To be noted: 10 µM. The method, then: as §1

The next data set deals with T4, CAMKK2 (Homo sapiens, UniProt Q96RR4).
T4 construct: purchased Kinexus, Canada (screening service)
T4 sequence (Q96RR4 whole entry, species assumed): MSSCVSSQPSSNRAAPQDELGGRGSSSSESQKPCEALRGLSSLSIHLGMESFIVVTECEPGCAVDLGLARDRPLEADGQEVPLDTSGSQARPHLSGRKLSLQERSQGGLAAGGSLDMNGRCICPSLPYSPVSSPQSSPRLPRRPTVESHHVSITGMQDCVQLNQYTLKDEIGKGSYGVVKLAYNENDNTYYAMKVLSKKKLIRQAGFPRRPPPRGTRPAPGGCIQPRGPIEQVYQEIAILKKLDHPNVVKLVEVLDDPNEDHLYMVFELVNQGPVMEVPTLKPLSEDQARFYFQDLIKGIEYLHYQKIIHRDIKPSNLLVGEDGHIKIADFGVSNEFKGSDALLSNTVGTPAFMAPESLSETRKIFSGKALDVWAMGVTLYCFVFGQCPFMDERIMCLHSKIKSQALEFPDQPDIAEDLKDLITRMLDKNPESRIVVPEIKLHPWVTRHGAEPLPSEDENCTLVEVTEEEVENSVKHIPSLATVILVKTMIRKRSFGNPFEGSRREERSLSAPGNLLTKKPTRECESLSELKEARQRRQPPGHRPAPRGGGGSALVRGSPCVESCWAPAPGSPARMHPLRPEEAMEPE
In words: Cell-free kinase panel (Kinexus). The format is biochemical. The method, then: as §1

In a further data set the target is T5, DDR1 (Homo sapiens, UniProt Q08345).
T5 construct: purchased Kinexus, Canada (screening service)
T5 sequence (Q08345 19-913, species assumed): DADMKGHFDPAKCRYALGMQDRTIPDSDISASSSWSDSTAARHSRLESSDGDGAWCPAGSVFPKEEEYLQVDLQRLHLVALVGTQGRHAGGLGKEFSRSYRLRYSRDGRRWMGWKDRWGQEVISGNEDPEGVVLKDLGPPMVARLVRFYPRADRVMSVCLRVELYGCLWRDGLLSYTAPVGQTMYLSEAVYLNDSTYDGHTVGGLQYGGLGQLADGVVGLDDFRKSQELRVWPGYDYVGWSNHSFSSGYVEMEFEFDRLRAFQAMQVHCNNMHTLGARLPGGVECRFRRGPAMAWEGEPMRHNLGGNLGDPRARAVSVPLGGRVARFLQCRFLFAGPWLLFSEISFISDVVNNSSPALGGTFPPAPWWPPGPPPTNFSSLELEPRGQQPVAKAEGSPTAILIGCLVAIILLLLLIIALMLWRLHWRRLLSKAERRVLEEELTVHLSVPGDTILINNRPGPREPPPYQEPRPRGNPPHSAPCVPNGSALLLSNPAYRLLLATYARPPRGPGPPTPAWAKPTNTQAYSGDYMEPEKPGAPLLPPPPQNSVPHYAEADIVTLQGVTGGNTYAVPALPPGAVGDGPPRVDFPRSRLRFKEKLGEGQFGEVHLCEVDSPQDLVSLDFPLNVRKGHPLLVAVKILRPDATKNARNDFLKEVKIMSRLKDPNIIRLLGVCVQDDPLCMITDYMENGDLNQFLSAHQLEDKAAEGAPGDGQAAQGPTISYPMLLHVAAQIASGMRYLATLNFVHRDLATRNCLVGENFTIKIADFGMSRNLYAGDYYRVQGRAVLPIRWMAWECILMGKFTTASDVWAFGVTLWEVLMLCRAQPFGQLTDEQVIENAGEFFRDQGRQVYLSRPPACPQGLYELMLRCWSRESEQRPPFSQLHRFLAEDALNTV
Description: Cell-free kinase panel (Kinexus). It is filed as biochemical. To be noted: 10 µM. As for the experimental part:
as §1

Another data set addresses T6, PAK1 (Homo sapiens, UniProt Q13153).
T6 construct: purchased Kinexus, Canada (screening service)
In words: Cell-free kinase panel (Kinexus). It is filed as biochemical. The conditions noted are these: 10 µM. As for the experimental part: as §1

The next data set concerns the target T7, ALK5 (Homo sapiens, UniProt P36897).
T7 construct: purchased Kinexus, Canada (screening service)
Description: Cell-free kinase panel (Kinexus). The conditions noted are these: 10 µM. The format is biochemical. The method, then:
as §1

Another data set has as its target T8, LRRK2 (Homo sapiens, UniProt Q5S007).
T8 construct: purchased Kinexus, Canada (screening service)
Description: Cell-free kinase panel (Kinexus). It is filed as biochemical. The conditions noted are these: 10 µM. The method, then: as §1

The target in a further data set is T9, TAK1 (Homo sapiens, UniProt O43318).
T9 construct: purchased Kinexus, Canada (screening service)
T9 sequence (O43318 1-303 limits assumed): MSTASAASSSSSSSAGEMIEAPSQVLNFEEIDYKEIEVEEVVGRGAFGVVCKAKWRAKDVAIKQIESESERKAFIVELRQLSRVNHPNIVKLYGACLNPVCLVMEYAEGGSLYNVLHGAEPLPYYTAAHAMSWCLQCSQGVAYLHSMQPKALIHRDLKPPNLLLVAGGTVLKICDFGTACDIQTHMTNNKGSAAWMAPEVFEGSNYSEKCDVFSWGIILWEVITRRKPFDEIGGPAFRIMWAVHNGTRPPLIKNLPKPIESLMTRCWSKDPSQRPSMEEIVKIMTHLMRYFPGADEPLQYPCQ
Description: Cell-free kinase panel (Kinexus). The format is biochemical. To be noted: 10 µM. The method, then: as §1

The target of a further data set is T10, SRC (Homo sapiens, UniProt P12931).
T10 construct: purchased Kinexus, Canada (screening service)
T10 sequence (P12931 whole entry, species assumed): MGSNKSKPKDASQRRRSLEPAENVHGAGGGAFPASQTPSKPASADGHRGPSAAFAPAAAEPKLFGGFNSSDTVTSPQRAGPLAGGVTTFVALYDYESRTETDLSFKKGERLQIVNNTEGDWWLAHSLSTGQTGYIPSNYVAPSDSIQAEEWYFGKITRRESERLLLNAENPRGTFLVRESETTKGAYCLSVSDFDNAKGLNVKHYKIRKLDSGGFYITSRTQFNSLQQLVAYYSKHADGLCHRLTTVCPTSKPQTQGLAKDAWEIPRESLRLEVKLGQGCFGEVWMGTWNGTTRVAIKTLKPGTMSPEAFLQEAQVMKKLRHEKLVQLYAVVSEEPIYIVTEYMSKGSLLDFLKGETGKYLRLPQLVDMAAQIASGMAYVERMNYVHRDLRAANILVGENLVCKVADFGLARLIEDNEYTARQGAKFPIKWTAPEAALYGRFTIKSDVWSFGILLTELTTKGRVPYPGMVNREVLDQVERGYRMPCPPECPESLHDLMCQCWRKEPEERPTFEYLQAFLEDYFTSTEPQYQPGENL
Description: Cell-free kinase panel (Kinexus). The format is biochemical. The conditions noted are these: 10 µM. As for the experimental part: as §1

Entries after “also recorded” stand apart in the source; their conditions may differ. Where two headings read alike, the source gives them in different places.

T1 sequence (Q15831 whole entry, species assumed): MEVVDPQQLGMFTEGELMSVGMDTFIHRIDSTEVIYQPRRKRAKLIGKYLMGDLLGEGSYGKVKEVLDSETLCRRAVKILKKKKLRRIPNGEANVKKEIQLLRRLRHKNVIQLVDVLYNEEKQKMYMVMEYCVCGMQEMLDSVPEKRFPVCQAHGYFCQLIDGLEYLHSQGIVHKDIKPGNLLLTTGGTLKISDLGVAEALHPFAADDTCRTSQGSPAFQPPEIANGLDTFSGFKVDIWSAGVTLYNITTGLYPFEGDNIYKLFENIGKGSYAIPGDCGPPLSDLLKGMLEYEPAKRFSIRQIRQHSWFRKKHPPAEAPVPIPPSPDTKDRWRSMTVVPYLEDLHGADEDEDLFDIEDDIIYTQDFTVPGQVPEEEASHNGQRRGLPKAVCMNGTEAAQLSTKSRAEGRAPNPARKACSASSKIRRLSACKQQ
T1 sequence (Q7RTN6 whole entry partner, species assumed): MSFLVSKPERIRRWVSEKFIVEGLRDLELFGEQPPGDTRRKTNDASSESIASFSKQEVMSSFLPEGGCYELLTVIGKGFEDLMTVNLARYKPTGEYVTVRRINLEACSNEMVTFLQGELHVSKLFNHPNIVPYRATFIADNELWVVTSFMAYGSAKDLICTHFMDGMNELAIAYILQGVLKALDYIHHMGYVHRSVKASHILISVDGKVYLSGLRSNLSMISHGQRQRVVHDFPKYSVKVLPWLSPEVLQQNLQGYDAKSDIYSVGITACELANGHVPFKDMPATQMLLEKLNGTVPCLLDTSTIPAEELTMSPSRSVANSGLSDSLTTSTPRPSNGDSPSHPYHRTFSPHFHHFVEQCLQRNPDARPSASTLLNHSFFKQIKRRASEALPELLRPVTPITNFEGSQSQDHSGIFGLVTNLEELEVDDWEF
T1 sequence (Q9Y376 whole entry partner, species assumed): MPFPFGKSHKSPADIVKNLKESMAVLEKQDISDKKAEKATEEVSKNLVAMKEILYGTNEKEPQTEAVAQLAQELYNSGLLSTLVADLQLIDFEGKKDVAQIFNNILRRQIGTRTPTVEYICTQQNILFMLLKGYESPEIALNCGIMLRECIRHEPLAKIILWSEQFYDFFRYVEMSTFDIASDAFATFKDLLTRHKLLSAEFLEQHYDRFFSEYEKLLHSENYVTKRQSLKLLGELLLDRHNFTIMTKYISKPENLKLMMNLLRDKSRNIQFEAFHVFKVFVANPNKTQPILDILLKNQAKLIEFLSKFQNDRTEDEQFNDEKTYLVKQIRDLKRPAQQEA
T2 sequence (Q01974 34-943, species assumed): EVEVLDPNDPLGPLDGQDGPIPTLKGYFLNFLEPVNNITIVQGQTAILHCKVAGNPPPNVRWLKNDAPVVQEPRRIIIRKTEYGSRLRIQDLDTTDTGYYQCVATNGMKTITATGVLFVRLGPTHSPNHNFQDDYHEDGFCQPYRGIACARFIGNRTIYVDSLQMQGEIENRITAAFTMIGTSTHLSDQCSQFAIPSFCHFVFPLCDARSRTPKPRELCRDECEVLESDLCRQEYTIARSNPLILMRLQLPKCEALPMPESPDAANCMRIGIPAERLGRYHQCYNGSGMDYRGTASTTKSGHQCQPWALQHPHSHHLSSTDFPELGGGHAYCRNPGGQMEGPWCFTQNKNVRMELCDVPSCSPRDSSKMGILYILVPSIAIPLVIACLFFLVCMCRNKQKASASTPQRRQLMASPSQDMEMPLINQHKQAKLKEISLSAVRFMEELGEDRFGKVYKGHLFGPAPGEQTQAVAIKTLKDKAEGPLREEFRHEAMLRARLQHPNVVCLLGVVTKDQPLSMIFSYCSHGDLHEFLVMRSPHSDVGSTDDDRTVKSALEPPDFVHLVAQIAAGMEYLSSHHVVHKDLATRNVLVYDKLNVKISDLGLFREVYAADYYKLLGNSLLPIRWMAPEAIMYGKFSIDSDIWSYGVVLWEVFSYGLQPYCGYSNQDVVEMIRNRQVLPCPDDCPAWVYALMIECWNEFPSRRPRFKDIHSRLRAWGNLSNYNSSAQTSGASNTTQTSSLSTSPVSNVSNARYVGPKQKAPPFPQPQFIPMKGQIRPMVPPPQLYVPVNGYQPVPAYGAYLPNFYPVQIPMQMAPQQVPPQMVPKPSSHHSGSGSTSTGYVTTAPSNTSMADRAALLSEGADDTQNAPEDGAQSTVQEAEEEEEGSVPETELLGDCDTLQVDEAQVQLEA
T7 sequence (P36897 34-503, species assumed): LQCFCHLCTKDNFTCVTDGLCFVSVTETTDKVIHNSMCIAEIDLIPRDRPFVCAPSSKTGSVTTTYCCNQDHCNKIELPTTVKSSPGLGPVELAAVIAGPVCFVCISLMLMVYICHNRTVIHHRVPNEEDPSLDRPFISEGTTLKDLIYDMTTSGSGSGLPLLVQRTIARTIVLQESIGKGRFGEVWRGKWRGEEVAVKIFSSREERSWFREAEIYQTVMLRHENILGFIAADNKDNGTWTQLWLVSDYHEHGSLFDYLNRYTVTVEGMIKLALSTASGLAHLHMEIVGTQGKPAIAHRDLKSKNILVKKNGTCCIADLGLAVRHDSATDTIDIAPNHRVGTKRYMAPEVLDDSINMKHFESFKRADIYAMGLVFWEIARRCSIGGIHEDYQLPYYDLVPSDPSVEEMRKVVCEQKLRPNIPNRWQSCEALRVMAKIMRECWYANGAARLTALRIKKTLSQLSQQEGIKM

As to `O=C(O)Cc1csc(Nc2ccc(C(F)(F)F)cc2)n1` [Activator-3, 2-[2-(4-(trifluoromethyl)phenylamino)thiazol-4-yl]acetic acid], the “effect on kinase activity” value at LKB1 (10 µM) and at TAK1 was “not affected” in each case. Besides, the “% Change” value at LKB1 (200μM, Control 10984 CPM, Test 11638 CPM) was found to be 5%. The EC50 in the data set on AMPK is around 28 nM. Also, the “effect on PFK1 activity” value with PFK1 was “unaffected; also recorded: no effect”. The molecule further showed a fraction unbound in [1] of around 0.2. For the same molecule, the t1/2 in [2] (male SD rats, oral 30 mg/Kg, plasma, 30 mg/kg) was ~ 4 h. For the same molecule, the “level in brain / brain penetration” value in data set [2] (male SD rats, oral 30 mg/Kg, 30 mg/kg) is on record as “No significant level; also recorded: no brain penetration”. The same molecule showed a half-life in data set [2] (male, SD, rat, plasma, po, 30 mg/kg, male SD rats, oral 30 mg/Kg) of 4.11 h. Further, the bioavailability entry in [2] (rat, oral) is on record as “good bioavailability”. For the same molecule, the Cmax is around 109 µg/mL in data set [2] (rat, plasma, male SD rats, oral 30 mg/Kg, read-out: Cmax in plasma) and around 360 µM in data set [2] (rat, plasma, male SD rats, oral 30 mg/Kg, read-out: Cmax in plasma, molar). Besides, the AUC in data set [2] (rat, plasma, male SD rats, oral 30 mg/Kg, read-out: Systemic exposure in plasma (AUC)) is around 978 µg·h/mL; in data set [2] (rat, plasma, male SD rats, oral 30 mg/Kg, read-out: Systemic exposure in plasma (AUC), molar), around 3300 µM·h. Besides, the activity change on ROR2 is listed as −35%; on PRK1 it was −36%; on DDR1, −79%; at PAK1, −42%; on ALK5, −61%; at LRRK2, −34%. In addition, the activity change at SRC is recorded as −71%. The molecule further returned an inhibition at 10 µM against CAMKK2 of 36%.
